Data on two compounds can be found in patent US20090291913A1, “FACTOR Xa INHIBITOR FORMULATION AND METHOD” (Bristol-Myers Squibb Company, priority 2005, published 2009).

The nature of data set [1]: solubility in substituted-β-cyclodextrin solution as a function of pH. It is filed as physicochemical.
The nature of data set [2]: aqueous solubility as a function of pH. It is filed as physicochemical.
The mark [3] stands for this setting: aqueous buffer, neutral form / free base, room temperature, pH 6.8.

As to `CN(C)Cc1nccn1-c1ccc(NC(=O)c2cc(C(F)(F)F)nn2-c2ccc3onc(N)c3c2)c(F)c1.Cl` [razaxaban], the “solubility in the substituted-β-cyclodextrins” value in data set [1] (pH 4.5 versus higher pH's up to 11) was “same solubility”. For the same compound, in data set [1] (pH lowered to between about 3 and about 4), the “solubility in substituted-β-cyclodextrin solution” value is on record as “increase in solubility”. The solubility (usually how much of the substance goes into solution per volume) is below 1 µg/mL in data set [2] (setting [3]) and around 3000 µg/mL in data set [2] (simulated gastric fluid, hydrochloride salt, normal gastric pH condition, pH of gastric medium ~1-2). For the same compound, in data set [2] (pH adjusted within pH 3-11, needed level e.g. 2.5 mg/mL), the “solubility on adjusting pH” value is reported as “could not be increased to the needed level”.

Compound `COc1ccc(-n2nc(C(N)=O)c3c2C(=O)N(c2ccc(N4CCCCC4=O)cc2)CC3)cc1` [Apixaban, 1-(4-methoxyphenyl)-7-oxo-6-[4-(2-oxo-1-piperidinyl)phenyl]-4,5,6,7-tetrahydro-1H-pyrazolo [3,4-c]pyridine-3-carboxamide] came in with a solubility in data set [2] (setting [3]) below 1 µg/mL.
